Source: patent US20260071252A1, “REVERSIBLE NANOPARTICLE AGGREGATES AND METHODS FOR DETECTING PROTEASES” (The Regents of the University of California, priority 2022, published 2026)
Entries after “also recorded” stand apart in the source; their conditions may differ. Where no end group is shown, it is not given here.

Legend:
[1] = Dissociation of Arg-Arg-AuNPs assemblies with HS-PEGs (UV-Vis percentage of dissociation, MANTA size); conditions: for dissociation of Arg-Arg-AuNPs assemblies: anchoring group / non-PEG ligand controls, up to >100 μM
From the text: Dissociation of the AuNPs assemblies. […] HS-PEG6-OCH3 was chosen because its grafting on AuNPs ensure a high colloidal stability of these latter. Indeed, the grafting of thiolated PEGs has been widely reported in the literature via the formation of a strong Au—S bond conferring to the particles a high colloidal stability due to a combination of hydrophilicity and steric hindrance.^30-32 The Au—S bond being stronger than the arginine-citrate, arginine-gold or even citrate-gold interactions, […] was expected to be capable of progressively replacing the arginine/citrate layers at the gold surface, disrupting the electrostatic network, and eventually dispersing the AuNPs (Scheme 1). Briefly, aqueous suspensions Arg-Arg-AuNPs assemblies were exposed to increasing concentrations of HS-PEG6-OCH3, and the dissociation of the assemblies was characterized by TEM, MANTA, FTIR and UV-Vis spectroscopies (FIG. 2).
The presence of a PEG layer around the AuNPs explains the difference in the hydrodynamic diameter versus the initial AuNPs-citrate (48±32 nm vs 40±25 nm). Remarkably, the LSPR band of the dissociated AuNPs was identical to the AuNPs-citrate: The color of the sample returned to its initial bright red color. […] For the remainder of this study, the efficiency of the dissociation will be characterized by the percentage of dissociation (%) as measured by UV-Vis spectroscopy (comparison between the LSPR band after dissociation versus that from AuNPs-citrate). See the experimental section in the supporting information for more details. […] This finding is particularly interesting because the typical grafting density of HS-PEG6-OCH3 on dispersed AuNPs is reported to be between 3.5 and 4 HS-PEG6-OCH3/nm^2.^33 This implies that no excess of HS-PEGs was needed to dissociate the entire assembly-only enough to cover all the gold surface. It is worth noting that the kinetics of the dissociation was almost instantaneous (equilibrium reached within a minute) (FIG. 14). A video of the dissociation of the AuNPs assemblies is available online.
Dissociation. Stock solutions of the different HS-PEGs with concentrations ranging from 10 μM to 1 mM were prepared. Specific volumes of each solution were added to a 96-well plate in order to reach the desired final HS-PEGs concentration and then 100 μL of Arg-Arg-AuNPs were added. For complex matrices experiments, the Arg-Arg-AuNPs were first concentrated 10 times by centrifugation and then dispersed in complex media (sea water, pooled human saliva, plasma, urine, bile or HEK cell lysates) that represented thus 90% of the total volume except for bile, which was only 20%. Quickly after the addition of AuNPs, the dissociation of the assembly was monitored and the ratio of the absorbances at 520 nm and 700 nm was recorded over time. The percentage of dissociation is described as follows:
(§1) The optical absorption measurements were collected using a hybrid multi-mode microplate reader (Synergy™ H1 model, BioTek Instruments, Inc.) in a 96-well plate. The dissociation of assembly was characterized by measuring the ratio of the absorbance at 520 nm or 530 nm and 700 nm or 820 nm for 20 nm NPs or 40 nm NPs, respectively.
The multispectral advanced nanoparticle tracking analysis (MANTA) is a technique that builds images from the particles' light scattering via three lasers of different wavelengths (for example, blue, green, and red); the wavelength of scattering depends on nanoparticle size. Thus, small particles (less than, or <, 100 nm) appear blue while larger particles appear greener or redder. MANTA uses these images to count the nanoparticles and calculate their size based on Brownian motion. […] 3000™ (Horiba Scientific, USA). The temperature was set to 25° C. during the measurement. Automated noise analysis determines the optimal wavelength for representing each nanoparticle. Here, 8-bit composite videos were generated, and 10 videos were used per analysis (300 frames for seconds).

[2] = Peptide-enabled dissociation of RRK-induced AuNP aggregates; conditions: for particle dissociation: RRK-induced AuNP aggregates; for dissociation of aggregated AuNPs in diverse matrixes: 100% human saliva, plasma, urine, and seawater; for concentration that dissociates AuNP aggregates: Gly spacer length
Experimental: After inducing AuNP aggregates by the RRK peptides, the A1 peptides with different concentrations from 7 to 300 μM were used to dissociate AuNP aggregates. The plasmonic resonance peak of AuNP aggregates blue shifted to 520 nm after particle dissociation. (FIG. 37b). The hydrodynamic diameter of AuNP aggregates (greater than (>) 1 μm) was reduced to 27±0.07 nm, and the surface charge of AuNPs was—13.4±1.03 mV because of surface modification with neutral charged A1 peptides (150 μM) and residual citrates (FIG. 37c). Particle dissociation induced color change from blue to red and a decrease in size as confirmed by time-dependent photographs, multi-laser wavelength nanoparticle tracking analysis (M-NTA), and TEM (FIG. 37d-e and FIG. 45A-C).
To further study the role of each amino acid in the A1 peptide, we synthesized eight peptide sequences (from A2 to A8) for control experiments (FIG. 46A-H). Table 1 includes peptide sequence, net charge, critical dissociation concentrations (CDC), and design rationale. First, we replaced Cys residue with Gly (i.e., A2) to confirm the role of the anchoring group. […] Second, we hypothesized that negatively charged EE residues were required for particle dissociation because they provide electrostatic repulsions for citrate-coated AuNPs.
Briefly, 10 μM of RRK peptide was used to aggregate 100 μL of AuNPs (conc approximately 3.6 nM). The particle aggregation rapidly occurred (less than 10 s), changing color from red to blue. Then the desired dissociation peptides were used to dissociate the AuNP aggregates. It is notable that these exemplary AuNPs are stabilized by citrate. Different surface ligands (for example, BSPP) and different sizes (40 or 60 nm) require different amounts of RRK peptide for particle aggregation.
Briefly, RRK peptides (8-10 μM) was first used to trigger AuNP aggregation in distilled water. The sample was centrifuged at […] for 5 min to remove the supernatant. Then, the pellet was re-dispersed in 100% human saliva, plasma, urine, and seawater. After re-dispersion, the desired amounts of dissociation peptide were used to dissociate AuNPs aggregates in different matrixes. […] The experiment was performed with three replicates, and the microplate reader was used to measure spectral scanning from 300 to 900 nm before and after dissociation. The ratiometric signal (λ520/λ700) was referred as dissociation. The data was blanked to remove background signal.

[3] = target: SARS-CoV-2 main protease (Mpro) (Severe acute respiratory syndrome coronavirus 2, UniProt P0DTD1)
[4] = Peptide-induced (Arg-Arg) assembly of AuNPs-citrate, TEM/MANTA/UV-Vis
From the text: Formation of AuNP assemblies. In this study, we investigated the possibility of forming convenient and reversible AuNPs assemblies using only elementary 15 nm AuNPs-citrate suspended in water and short peptides without the need for a complex surface modification. Peptides were used because they are relatively bulky and thus their steric prevented the particles from entering a permanent aggregated state. Arginine in particular can strongly interact with citrate anions via electrostatic interactions. A dipeptide containing two repetitions of arginine (Arg-Arg or RR) was thus used to interact with multiple particles at the same time and induce assembly.
Multispectral advanced nanoparticles tracking analysis (MANTA) was then used to confirm the size increase: The initial blue scattering corresponding to a hydrodynamic diameter of 40±25 nm (FIG. 1C) transformed immediately into red scattering corresponding to a hydrodynamic diameter of approximately 467±120 nm (FIG. 1D). Importantly, the count of particles decreased by more than 90%—from 2.5×10^5/mL to 2×10^4/mL, thus confirming that the vast majority of the AuNPs-citrate were aggregated. TEM images at different magnifications are seen in the supporting information (FIG. 10 and FIG. 11).
AuNPs Assembly and Dissociation Assembly. Typically, 1 mL of AuNPs-citrate at OD=1.5 was mixed with 50 μL of Arg-Arg (100 μM) to provoke the AuNPs assembly. The color of the suspensions rapidly changed from red to blue. The assembled AuNPs (Arg-Arg-AuNPs) were stable over time when stored at 4° C. and could be used for dissociation even month after their assembly.
as §1
The multispectral advanced nanoparticle tracking analysis (MANTA) is a technique that builds images from the particles' light scattering via three lasers of different wavelengths (for example, blue, green, and red); the wavelength of scattering depends on nanoparticle size. Thus, small particles (less than, or <, 100 nm) appear blue while larger particles appear greener or redder. MANTA uses these images to count the nanoparticles and calculate their size based on Brownian motion. MANTA was performed with the VIEWSIZER 3000™ (Horiba Scientific, USA). The temperature was set to 25° C. during the measurement. Automated noise analysis determines the optimal wavelength for representing each nanoparticle. Here, 8-bit composite videos were generated, and 10 videos were used per analysis (300 frames for seconds). A quartz cuvette with minimum volume of 1 mL was used for the measurement and the AuNPs concentrations was set up at 0.04 nM.

[5] = critical dissociation concentration, X (no dissociation)

O=C(O)CCOCCOCCOCCOCCOCCOCCOCCOCCOCCOCCOCCOCCS [HS-PEG12-COOH, HS—(CH2CH2O)12—CH2CH2COOH]
assemblies dissociated ([1]; from concentrations of 10 μM): 100%

O=C(O)c1ccc(S)cc1 [MBA, 4-mercaptobenzoic acid, reference compound]
dissociation of Arg-Arg-AuNPs assemblies [1]: none could dissociate the aggregates

O=C(O)CCS [MPA, 3-mercaptopropionic acid, reference compound]
dissociation of Arg-Arg-AuNPs assemblies [1]: none could dissociate the aggregates

Ace-CGGKKEEAVLQ-Am [Peptide A15]
particle dissociation [2]: higher dissociation capacity than the A14 peptide; also recorded: dissociated AuNP aggregates

Ace-CGGKKEEAVLQSGF-Am [Peptide A19]
peptide concentration causing non-desired particle dissociation [3]: over 50 μM

Ace-EEKKAAC-Am [Peptide A10]
CDC ([2]; spacer comparison PP, AA, GG): 150 µM

Ace-EEKKGGC-Am (Ac-EEKKGGC-NH2) [Peptide A11]
dissociation of aggregated AuNPs in diverse matrixes [2]: successfully dissociated the aggregated AuNPs in diverse matrixes | concentration that dissociates AuNP aggregates [2]: 16 µM | particle dissociation [2]: highest dissociation capacity compared to other spacers | CDC ([2]; spacer comparison PP, AA, GG): 16 µM

Ace-EEKKGGCAVLQ-Am (Ac-EEKKGGCAVLQ-NH2) [Peptide A17]
particle dissociation [2]: failed to dissociate AuNP aggregates; also recorded: decreased the dissociation capacity

Ace-EEKKGGGGC-Am (Ac-EEKKGGGGC-NH2) [Peptide A12]
dissociation of aggregated AuNPs in diverse matrixes [2]: successfully dissociated the aggregated AuNPs in diverse matrixes | concentration that dissociates AuNP aggregates [2]: 16 µM

Ace-EEKKGGGGGGC-Am (Ac-EEKKGGGGGGC-NH2) [Peptide A13]
dissociation capacity lower than the A12 peptides ([2]; same peptide concentration (30 μM)): 25%

Ace-EEKKPPG-Am (Ac-EEKKPPG-NH2) [Peptide A2]
particle dissociation [2]: failed to dissociate AuNP aggregates

Ace-EEPPC-Am [Peptide A7]
CDC [2, 5]: >300 µM | decreased to % of the dissociation capacity ([2]; relative to A1 peptide): 30%

Ace-EEPPKKC-Am (Ac-EEPPKKC-NH2) [Peptide A5]
dissociation capacity lower than A1 peptide [2]: 50% | CDC [2, 5]: >300 µM

Ace-KEEKKPPC-Am (Ac-KEEKKPPC-NH2) [Peptide A4]
particle dissociation [2]: no particle dissociations

Ace-KKEEPPC-Am (Ac-KKEEPPC-NH2) [Peptide A6]
particle dissociation [2]: particle dissociation was quenched

Arg-Arg
decrease of the count of particles ([4]; MANTA, from 2.5×10^5/mL to 2×10^4/mL after Arg-Arg): more than 90% | Arg-Arg-induced aggregation of AuNPs-citrate in complex media ([4]; biological fluids, high concentrations of Arg-Arg (>200 μM)): could not induce the AuNPs-citrate aggregation in biological fluids | hydrodynamic diameter (MANTA) after addition of di-arginine peptide ([4]; excess (10^4 equiv.), 10 μM Arg-Arg, 10 minutes, initial AuNPs-citrate 40±25 nm): approximately 467±120 nm

Arg-Gly-Gly-Gly-Arg (RGGGR-NH2) [reference compound]
affinity for the AuNPs-citrate compared to Arg-Arg (RR) ([4]; FIG. 1F): higher affinity for the particles than RR

NH2-EEKKPPC-Am (H-EEKKPPC-NH2) [Peptide A3]
particle dissociation [2]: no particle dissociations

SGFR
impact of released fragment on the dissociation process [3]: negligible impact on the dissociation process
